Measurements taken from patent publication US20040224958A1, “Pyridopyrimidinone derivatives for treatment of neurodegenerative disease” (priority 2000, published 2004).
Like-named read-outs stand apart in the source and are kept apart here.

Assays:
cdk4/D = cdk4/D (Homo sapiens, UniProt P11802); experiment: Cyclin-Dependent Kinase 4 (cdk4) Assay; format: biochemical; conditions: read-out: cdk4/D IC50
cdk2/cyclinE = cdk2/cyclinE (Homo sapiens, UniProt P24941); experiment: Cyclin-Dependent Kinase Assay cdk2/cyclinE
cdk2/cyclinA = cdk2/cyclinA (Homo sapiens, UniProt P24941); experiment: Cyclin-Dependent Kinase Assay cdk2/cyclinA
Cdk5/p25 = Cdk5/p25 (Homo sapiens, UniProt Q00535); experiment: Cyclin-Dependent Kinase 5 High Throughput Screening (cdk5-HTS) Assay; format: biochemical; conditions: high throughput screen
Outline: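 Cdk5/p25 (1.0 μg/mL) phosphorylates GST-RbCOOH (20 μg/mL) in 50 mM Tris pH 7.4 with 10 mM MgCl2 and 20 μM ATP spiked with [γ33P]ATP, 30 min at room temperature. After EDTA stop, substrate captured on glutathione-coated plates; 33P incorporation counted by scintillation; IC50 determined.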

cdc2/cyclinB = cdc2/cyclinB (Homo sapiens, UniProt P06493); experiment: Cyclin-Dependent Kinase Assay cdc2/cyclinB
Chain of cdc2/cyclinB (P06493 whole entry): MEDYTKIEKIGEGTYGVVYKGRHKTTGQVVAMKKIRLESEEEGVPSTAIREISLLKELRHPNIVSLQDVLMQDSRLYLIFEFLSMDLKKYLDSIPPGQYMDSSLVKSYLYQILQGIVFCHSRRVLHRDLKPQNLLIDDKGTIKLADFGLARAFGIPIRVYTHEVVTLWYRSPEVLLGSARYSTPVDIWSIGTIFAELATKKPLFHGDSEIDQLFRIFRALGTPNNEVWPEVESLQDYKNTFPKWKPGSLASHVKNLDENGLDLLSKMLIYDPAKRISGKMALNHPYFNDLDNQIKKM
Chain of cdc2/cyclinB (P14635 whole entry, further chain): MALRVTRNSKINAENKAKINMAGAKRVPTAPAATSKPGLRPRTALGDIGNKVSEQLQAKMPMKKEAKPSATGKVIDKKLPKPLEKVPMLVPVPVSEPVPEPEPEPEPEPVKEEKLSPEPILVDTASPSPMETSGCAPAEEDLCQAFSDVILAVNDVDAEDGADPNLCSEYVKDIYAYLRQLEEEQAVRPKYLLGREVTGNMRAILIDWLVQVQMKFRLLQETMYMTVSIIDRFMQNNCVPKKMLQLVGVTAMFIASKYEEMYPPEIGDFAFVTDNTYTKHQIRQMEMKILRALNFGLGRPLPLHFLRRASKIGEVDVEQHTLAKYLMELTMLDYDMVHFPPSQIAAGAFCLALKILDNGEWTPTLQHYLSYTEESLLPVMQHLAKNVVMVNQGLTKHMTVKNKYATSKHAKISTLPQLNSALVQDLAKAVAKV

Chain of cdk4/D (P11802 whole entry): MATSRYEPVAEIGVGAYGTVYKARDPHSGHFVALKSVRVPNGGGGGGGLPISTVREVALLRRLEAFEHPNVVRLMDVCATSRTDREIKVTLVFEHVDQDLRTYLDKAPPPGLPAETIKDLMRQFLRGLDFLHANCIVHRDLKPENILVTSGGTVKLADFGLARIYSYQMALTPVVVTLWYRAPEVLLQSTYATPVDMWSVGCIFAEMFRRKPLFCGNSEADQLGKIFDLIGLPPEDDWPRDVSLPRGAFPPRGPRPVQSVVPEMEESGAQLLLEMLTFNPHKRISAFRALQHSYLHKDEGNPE
Chain of cdk4/D (P24385 whole entry, further chain): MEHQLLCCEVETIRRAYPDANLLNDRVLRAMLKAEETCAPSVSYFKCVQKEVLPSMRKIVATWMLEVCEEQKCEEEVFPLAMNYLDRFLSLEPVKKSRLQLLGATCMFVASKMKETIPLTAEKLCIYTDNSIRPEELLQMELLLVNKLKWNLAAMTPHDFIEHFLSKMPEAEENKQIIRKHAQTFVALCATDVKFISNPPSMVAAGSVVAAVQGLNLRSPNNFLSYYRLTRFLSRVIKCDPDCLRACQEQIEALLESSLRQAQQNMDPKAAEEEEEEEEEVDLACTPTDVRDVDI

Row | Compound | IC50 (cdk4/D) [nM] | IC50 (cdk2/cyclinE; cdk2/E IC50) [nM] | IC50 (cdk2/cyclinA; cdk2/A IC50) [nM] | IC50 (Cdk5/p25) [nM] | IC50 (cdc2/cyclinB) [nM] | IC50 (cdk2/cyclinE; read-out: cdk2/E IC50) [nM] | IC50 (cdk2/cyclinA; read-out: cdk2/A IC50) [nM] | IC50 (cdc2/cyclinB; read-out: cdk1/B IC50) [nM]
1 | COc1cc(Nc2ncc3ccc(=O)n(C(C)C)c3n2)cc(OC)c1OC [Example 417, 8-Isopropyl-2-(3,4,5-trimethoxy-phenylamino)-8H-pyrido[2,3-d]pyrimidin-7-one] | 3400 | 590 | 870 | 170 | 880 |  |  | 
2 | [4-(7-Oxo-8-propyl-7,8-dihydro-pyrido[2,3-d]pyrimidin-2-ylamino)-phenyl]-carbamic acid tert-butyl ester [Example 326] | 2100 |  |  | 460 |  | 820 | 2450 | 995
3 | COc1cc(Nc2ncc3ccc(=O)n(C(C)C)c3n2)cc(C(F)(F)F)c1 [Example 425, 8-Isopropyl-2-(3-methoxy-5-trifluoromethyl-phenylamino)-8H-pyrido[2,3-d]pyrimidin-7-one] | 850 | 770 | 1800 | 180 | 490 |  |  | 
4 | CCCn1c(=O)ccc2cnc(Nc3ccc(F)c(Cl)c3)nc21 [Example 369, 2-(3-Chloro-4-fluoro-phenylamino)-8-propyl-8H-pyrido[2,3-d]pyrimidin-7-one] | 526 | 71.9 | 287 | 85.3 | 129 |  |  | 
5 | CCC(CC)n1c(=O)ccc2cnc(Nc3ccc(F)c(C(F)(F)F)c3)nc21 [Example 502, 8-(1-Ethyl-propyl)-2-(4-fluoro-3-trifluoromethyl-phenylamino)-8H-pyrido[2,3-d]pyrimidin-7-one] | 350 | 68 | 360 | 21 | 100 |  |  | 
6 | CCC(CC)n1c(=O)ccc2cnc(Nc3ccc4c(c3)CCC4)nc21 [Example 525, 8-(I-Ethyl-propyl)-2-(indan-5-ylamino)-8H-pyrido[2,3-d]pyrimidin-7-one] | 1200 | 110 | 290 | 27 | 99 |  |  | 
7 | CCCCn1c(=O)ccc2cnc(Nc3cc(OC)cc(C(F)(F)F)c3)nc21 [Example 396, 8-Butyl-2-(3-methoxy-5-trifluoromethyl-phenylamino)-8H-pyrido[2,3-d]pyrimidin-7-one] | 1100 | 300 | 2600 | 590 | 600 |  |  | 
8 | CCCCn1c(=O)ccc2cnc(Nc3ccc(F)c(C)c3)nc21 [Example 392, 8-Butyl-2-(4-fluoro-3-methyl-phenylamino)-8H-pyrido[2,3-d]pyrimidin-7-one] | 760 | 77 | 360 | 110 | 140 |  |  | 
9 | CCCn1c(=O)ccc2cnc(Nc3ccccc3)nc21 [Example 309, 2-Phenylamino-8-propyl-8H-pyrido[2,3-d]pyrimidin-7-one] | 357 | 157 | 420 | 145 | 425 |  |  | 
10 | Cc1cc(Nc2ncc3ccc(=O)n(CC4CC4)c3n2)cc(C)c1O [Example 586, 8-Cyclopropylmethyl-2-(4-hydroxy-3,5-dimethyl-phenylamino)-8H-pyrido[2,3-d]pyrimidin-7-one] | 490 | 200 | 170 | 170 | 120 |  |  | 
11 | CCC(CC)n1c(=O)ccc2cnc(Nc3ccc(C)c(NC(C)=O)c3)nc21 [Example 522, N-{5-[8-(1-Ethyl-propyl)-7-oxo-7,8-dihydro-pyrido[2,3-d]pyrimidin-2-ylamino]-2-methyl-phenyl}-acetamide] | 360 | 320 | 1600 | 300 | 1100 |  |  | 
12 | O=c1ccc2cnc(Nc3ccccc3)nc2n1CC(F)(F)F [Example 601, 2-Phenylamino-8-(2,2,2-trifluoro-ethyl)-8H-pyrido[2,3-d]pyrimidin-7-one] | 1450 | 1200 | 2850 | 400 | 1650 |  |  | 

These reach a lower IC50 (cdk4/D). Values come first.

Row | IC50 (cdk4/D) [nM] | IC50 (cdk2/cyclinE; cdk2/E IC50) [nM] | IC50 (cdk2/cyclinA; cdk2/A IC50) [nM] | IC50 (Cdk5/p25) [nM] | IC50 (cdc2/cyclinB) [nM] | Compound | IC50 (cdk2/cyclinE; read-out: cdk2/E IC50) [nM] | IC50 (cdk2/cyclinA; read-out: cdk2/A IC50) [nM] | IC50 (cdc2/cyclinB; read-out: cdk1/B IC50) [nM]
13 | 36 | 93 | 400 | 44 | 110 | CCC(CC)n1c(=O)ccc2cnc(Nc3ccc(C#N)c(NC(C)=O)c3)nc21 [Example 506, N-{2-Cyano-5-[8-(-ethyl-propyl)-7-oxo-7,8-dihydro-pyrido[2,3-d]pyrimidin-2-ylamino]-phenyl}-acetamide] |  |  | 
14 | 110 | 22.3 | 41.5 | 13.5 | 59.5 | COc1ccc(Nc2ncc3ccc(=O)n(C4CCCC4)c3n2)cc1OC [Example 541, 8-Cyclopentyl-2-(3,4-dimethoxy-phenylamino)-8H-pyrido[2,3-d]pyrimidin-7-one] |  |  | 
15 | 58 | 130 | 210 | 21 | 310 | CC(C)n1c(=O)ccc2cnc(Nc3ccc(F)c(F)c3)nc21 [Example 426, 2-(3,4-Difluoro-phenylamino)-8-isopropyl-8H-pyrido[2,3-d]pyrimidin-7-one] |  |  | 
16 | 114 | 22 | 40 | 13 | 25.5 | CCC(C)n1c(=O)ccc2cnc(Nc3ccc(O)c(Cl)c3)nc21 (centres unmarked) [Example 452, 8-sec-Butyl-2-(3-chloro-4-hydroxy-phenylamino)-8H-pyrido[2,3-d]pyrimidin-7-one] |  |  | 
17 | 160 | 430 | 830 | 160 | 590 | CCCn1c(=O)ccc2cnc(Nc3ccc(N(C)C(C)=O)cc3)nc21 [Example 345, N-Methyl-N-[4-(7-oxo-8-propyl-7,8-dihydro-pyrido[2,3-d]pyrimidin-2-ylamino)-phenyl]-acetamide] |  |  | 
18 | 262 | 68.3 | 115 | 21.5 | 59.5 | CCC(C)n1c(=O)ccc2cnc(Nc3ccc(OC)c(OC)c3)nc21 (centres unmarked) [Example 454, 8-sec-Butyl-2-(3,4-dimethoxy-phenylamino)-8H-pyrido[2,3-d]pyrimidin-7-one] |  |  | 
19 | 51 | 91 | 155 | 38.5 | 165 | CC(=O)Nc1ccc(Nc2ncc3ccc(=O)n(C(C)C)c3n2)cc1 [Example 414, N-[4-(8-Isopropyl-7-oxo-7,8-dihydro-pyrido[2,3-d]pyrimidin-2-ylamino)-phenyl]-acetamide] |  |  | 
20 | 42 | 8.5 | 25.5 | 12.3 | 49.5 | O=c1ccc2cnc(Nc3ccc4[nH]nnc4c3)nc2n1C1CCCC1 [Example 537, 2-(1H-Benzotriazol-5-ylamino)-8-cyclopentyl-8H-pyrido[2,3-d]pyrimidin-7-one] |  |  | 
21 | 180 | 200 | 263 | 177 | 273 | CC(C)n1c(=O)ccc2cnc(Nc3ccc(NC(=O)OC(C)(C)C)cc3)nc21 [Example 411, [4-(8-Isopropyl-7-oxo-7,8-dihydro-pyrido[2,3-d]pyrimidin-2-ylamino)-phenyl]-carbamic acid tert-butyl ester] |  |  | 
22 | 280 | 500 | 1700 | 210 | 550 | COc1cc(Nc2ncc3ccc(=O)n(C4CCCC4)c3n2)cc(C(F)(F)F)c1 [Example 543, 8-Cyclopentyl-2-(3-methoxy-5-trifluoromethyl-phenylamino)-8H-pyrido[2,3-d]pyrimidin-7-one] |  |  | 
23 | 280 | 31 | 89.5 | 17.5 | 24 | CCC(CC)n1c(=O)ccc2cnc(Nc3ccc(O)c(Cl)c3)nc21 [Example 496, 2-(3-Chloro-4-hydroxy-phenylamino)-8-(1-ethyl-propyl)-8H-pyrido[2,3-d]pyrimidin-7-one] |  |  | 
24 | 285 | 26 | 83 | 32.5 | 59 | CCCCn1c(=O)ccc2cnc(Nc3ccc4[nH]nnc4c3)nc21 [Example 380, 2-(1H-Benzotriazol-5-ylamino)-8-butyl-8H-pyrido[2,3-d]pyrimidin-7-one] |  |  | 
25 | 140 | 120 | 300 | 23 | 170 | CC(C)n1c(=O)ccc2cnc(Nc3ccc4c(c3)CCCC4=O)nc21 [Example 431, 8-Isopropyl-2-(5-oxo-5,6,7,8-tetrahydro-naphthalen-2-ylamino)-8H-pyrido[2,3-d]pyrimidin-7-one] |  |  | 
26 | 110 | 463 | 170 | 50.5 | 98.5 | CCC(C)n1c(=O)ccc2cnc(Nc3ccc(OC)cc3)nc21 (centres unmarked) [Example 455, 8-sec-Butyl-2-(4-methoxy-phenylamino)-8H-pyrido[2,3-d]pyrimidin-7-one] |  |  | 
27 | 28 | 95 | 280 | 33 | 62 | CCC(CC)n1c(=O)ccc2cnc(Nc3ccc4[nH]c5ccccc5c4c3)nc21 [Example 516, 2-(9H-Carbazol-3-ylamino)-8-(I-ethyl-propyl)-8H-pyrido[2,3-d]pyrimidin-7-one] |  |  | 
28 | 160 | 140 | 56 | 50 | 47 | Cc1cc(Nc2ncc3ccc(=O)n(C4CCCC4)c3n2)ccc1Br [Example 562, 2-(4-Bromo-3-methyl-phenylamino)-8-cyclopentyl-8H-pyrido[2,3-d]pyrimidin-7-one] |  |  | 
